Reference: patent US20080317836A1, “Topical compositions for anti-aging skin treatment” (DISCOVERY PARTNERS LLC, priority 2007, published 2008)

Assay: Stability to intense pulsed light (IPL) flashes, monitored by absorbance spectrum
Type: physicochemical
Settings: ten pulses at maximum fluence of the flash lamp, visible spectral range
Description: A small study, on one subject, was conducted to see whether encapsulation of the sodium-copper-chlorophyllin within the liposome enhanced skin tanning, i.e., increased penetration and bioavailability of copper to the melanin-producing enzyme, […]. […] Three areas on the back received 1.0 MED simulated solar radiation: one area had received no treatment, one area had been pre-treated with the gel without liposome and the third area was treated with the liposome gel. An expert blinded grader scored the resulting skin tanning at 10 days after irradiation, using the Degree of Tanning scale 0 to 10 (darkest). […] Controlled dissociation of the sodium-copper-chlorophyllin complex is possible, in part because of the high stability of this complex. Normally, inorganic and organic copper salts, including copper-peptides, are not very stable with regard to binding copper. The inherent stability and lack of reactivity of sodium-copper-chlorophyllin is essential for this process to work successfully. […] Stability was monitored by measurement of the dye's full absorbance spectrum, since degradation of the dye would be detectable as changes in the absorbance spectrum.

For “sodium-copper-chlorophyllin [sodium-copper-chlorphyllin]”, which “absorbance spectrum after IPL flashes” value is on record?
The value was “remained unchanged”.
